From patent US6380166B1, “Glucopyranosides conjugates of 2-(4-hydroxy-phenyl)-3-methyl-1-[4-(2-amin-1-yl-ethoxy)-benzyl]-1H-indol-5-ols” (American Home Products Corporation, priority 1999, dated 2002)
Where a name gives a salt, the structure may show the parent alone.

Molecular target: T1, estrogen receptor (Homo sapiens, UniProt P03372)
T1 construct: since the MCF-7 cells express estrogen receptors; endogenous in cells; host or cells: MCF-7 human breast carcinoma cells infected with adenovirus 5-ERE-tk-luciferase (reporter only)
T1 sequence (P03372 1-595): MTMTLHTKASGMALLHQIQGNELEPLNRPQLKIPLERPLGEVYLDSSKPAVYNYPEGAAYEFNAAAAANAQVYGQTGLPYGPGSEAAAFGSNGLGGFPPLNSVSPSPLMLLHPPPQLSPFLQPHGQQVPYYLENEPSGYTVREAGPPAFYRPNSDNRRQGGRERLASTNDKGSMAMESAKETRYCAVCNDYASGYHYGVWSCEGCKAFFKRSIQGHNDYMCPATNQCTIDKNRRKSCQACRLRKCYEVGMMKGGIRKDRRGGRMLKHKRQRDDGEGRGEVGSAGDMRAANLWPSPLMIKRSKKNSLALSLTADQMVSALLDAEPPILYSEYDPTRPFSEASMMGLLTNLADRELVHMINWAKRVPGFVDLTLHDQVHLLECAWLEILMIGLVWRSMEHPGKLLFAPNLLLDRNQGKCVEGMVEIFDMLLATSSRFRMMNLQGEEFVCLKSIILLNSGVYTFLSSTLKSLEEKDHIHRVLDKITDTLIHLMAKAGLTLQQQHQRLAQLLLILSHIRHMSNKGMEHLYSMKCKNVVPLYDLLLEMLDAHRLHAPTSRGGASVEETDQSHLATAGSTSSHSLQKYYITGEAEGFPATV
Test: MCF-7 ERE-tk-luciferase test procedure, antagonist mode
Format: cell-based
Details: co-dosed with 10 pM 17β-estradiol, MCF-7 cells infected with adenovirus 5-ERE-tk-luciferase, treated 24 h
Text: Estrogen antagonist activity was shown for representative compounds of this invention in a standard pharmacological test procedure using MCF-7 cells transfected with an estrogen receptor. When administered orally, the compounds of this invention act at least partially as prodrugs for the corresponding hydroxylated compounds disclosed in EP 802183. Accordingly, the compounds of this invention are tissue selective estrogens, meaning that in certain tissue containing estrogen receptors, the compounds will act as estrogen agonists, and in other tissue containing estrogen receptors, the compounds will act as antagonists. […]
After treatment the cells were lysed on a shaker for 15 min with 25 uL/well of 1× cell culture lysis reagent (Promega Corporation). The cell lysates (20 uL) were transferred to a 96 well luminometer plate, and luciferase activity was measured in a MicroLumat LB 96 P luminometer (EG and G Bethold) using 100 uL/well of luciferase substrate (Promega Corporation). […] Following the injection of the substrate, luciferase activity was measured for 10 seconds after a 1 second delay. The data were transferred from the luminometer to a Macintosh personal computer and analyzed using the JMP software (SAS institute); this program subtracts the background reading from the luciferase measurement for each well and then determine the mean and standard deviation of each treatment. […]

For `Cc1c(-c2ccc(O)cc2)n(Cc2ccc(OCCN3CCCCC3)cc2)c2ccc(O[C@@H]3O[C@H](C(=O)O)[C@@H](O)[C@H](O)[C@H]3O)cc12` [Compound 29, 1-[4-(2-Piperidin-1-yl-ethoxy)-benzyl]-2-(4-hydroxy-phenyl)-3-methyl-1H-indol-5-ol 5-O-glucuronide triethylammonium salt], which IC50 is on record?
The IC50 was 230 nM.

For `Cc1c(-c2ccc(O[C@@H]3O[C@H](C(=O)O)[C@@H](O)[C@H](O)[C@H]3O)cc2)n(Cc2ccc(OCCN3CCCCC3)cc2)c2ccc(O)cc12` [Compound 37, 2-(4-Hydroxy-phenyl)-3-methyl-1-[4-(2-piperidin-1-yl-ethoxy)-benzyl]-1H-indol-5-ol 4-O-Glucuronide Triethyl Ammonium Salt], which IC50 is on record?
The IC50 was 1200 nM.
